These results are taken from ChEMBL document CHEMBL4265870, “Synthesis and biological evaluation of a new series of benzimidazole derivatives as antimicrobial, antiquorum-sensing and antitumor agents” (Eur J Med Chem, 2017).

Assay [1] concerns Chromobacterium violaceum. The assay can be described thus: Antiquorum-sensing activity against Chromobacterium violaceum ATCC 12472 assessed as reduction in violacein production at 5000 ug/ml a=. In kind it is functional.
The next assay has as its system Escherichia coli. The assay can be described thus: Antimicrobial activity against Escherichia coli by two fold serial dilution method. The format is functional.
The next assay concerns Bacillus cereus. The assay can be described thus: Antimicrobial activity against Bacillus cereus by two fold serial dilution method. The format is functional.
The next assay deals with Staphylococcus aureus. The assay is described as follows: Antimicrobial activity against Staphylococcus aureus by two fold serial dilution method. In kind it is functional.
The test system of a further assay is Aspergillus fumigatus. The assay can be described thus: Antimicrobial activity against Aspergillus fumigatus 293 by two fold serial dilution method. The format is functional. Particulars: Af293.
In the next assay the test system is HepG2. The assay is described as follows: Cytotoxicity in human HepG2 cells assessed as reduction in cell viability by MTT assay. In kind it is functional, cell-based.
The subject of the next assay is HCT-116. The assay can be described thus: Cytotoxicity in human HCT116 cells assessed as reduction in cell viability by MTT assay. The format is functional, cell-based. On the technique in general: Tetrazolium assays rely on reduction of a dye to a coloured formazan, in cell work by metabolically active cells.
The subject of the next assay is MCF7. The assay is described as follows: Cytotoxicity in human MCF7 cells assessed as reduction in cell viability by MTT assay. In kind it is functional, cell-based.
For a further assay, the system named is Calf thymus DNA. The assay is described as follows: Binding affinity to calf thymus DNA by TLC plate based assay. The format is nucleic-acid assay. Conditions: Bos taurus.

For orientation: MIC means the lowest concentration that inhibits growth of the organism. Broadly, the IC50 is the concentration at which inhibition is half-maximal.

In brackets after ≈: the same amount, converted by molar mass. Activity calls are given as the source filed them. The calls are words filed in the database; no cut-off is given here.

On to `Oc1cc(O)c2c(c1)O[C@H](c1ccc(O)c(O)c1)[C@@H](O)C2` [CIANIDANOL], for which the “diameter of the inhibition zone (DIZ)” value in [1] turned out to be 2 mm.

As for `NS(=O)(=O)c1nnc(NCc2nc3cc([N+](=O)[O-])ccc3[nH]2)s1`, the minimum inhibitory concentration (MIC) in the assay with Escherichia coli, in the assay with Bacillus cereus, against Staphylococcus aureus and against Aspergillus fumigatus was over 2500 µg/mL in each case. In addition, the “diameter of the inhibition zone (DIZ)” value in assay [1] is recorded as under 2 mm. In addition, the IC50 was 184 µM in the assay with HepG2, 176 µM in the assay with HCT-116 and 230 µM in the assay on MCF7.

On to `CC[n+]1c(-c2ccccc2)c2cc(N)ccc2c2ccc(N)cc21`, for which, in the assay on Calf thymus DNA, the outcome was Active.

Turning to `Cc1c(NCc2nc3ccccc3[nH]2)c(=O)n(-c2ccccc2)n1C`, the MIC in the assay with Escherichia coli worked out at 2500 µg/mL (≈ 7.5 mM); against Bacillus cereus, 1250 µg/mL (≈ 3.75 mM); in the assay on Staphylococcus aureus, 312 µg/mL (≈ 0.937 mM); against Aspergillus fumigatus it was 625 µg/mL (≈ 1.87 mM). The “diameter of the inhibition zone (DIZ)” value in assay [1] was determined as 6 mm. Also, the IC50 was 63 µM with HepG2, 38 µM in the assay on HCT-116 and 53 µM in the assay with MCF7. Moreover, the result in the assay with Calf thymus DNA was Active.

Turning to `CC1(C)S[C@@H]2[C@H](NC(=O)[C@H](N)c3ccccc3)C(=O)N2[C@H]1C(=O)O` [AMPICILLIN], the values for the MIC against Escherichia coli, against Bacillus cereus and against Staphylococcus aureus were 19.5 µg/mL (≈ 0.0559 mM), 1250 µg/mL (≈ 3.58 mM) and 312 µg/mL (≈ 0.894 mM), respectively.

`OC(Cn1cncn1)(Cn1cncn1)c1ccc(F)cc1F` [FLUCONAZOLE] came in with an MIC against Aspergillus fumigatus of over 2500 µg/mL.

On to `COc1ccc2c(c1)CCC/C2=N\NCc1nc2cc([N+](=O)[O-])ccc2[nH]1`, for which the MIC against Escherichia coli is over 2500 µg/mL; in the assay on Bacillus cereus it was over 2500 µg/mL; against Staphylococcus aureus, over 2500 µg/mL; in the assay with Aspergillus fumigatus it was 2500 µg/mL (≈ 6.84 mM). In addition, in assay [1], the “diameter of the inhibition zone (DIZ)” value is given as under 2 mm. For the same molecule, the half-inhibitory concentration (IC50) with HepG2 was found to be 96 µM; in the assay with HCT-116, 45 µM; with MCF7 it was 78 µM.

As for `O=[N+]([O-])c1ccc2[nH]c(CNc3nc(-c4ccccc4)cs3)nc2c1`, the MIC was over 2500 µg/mL against Escherichia coli, over 2500 µg/mL in the assay with Bacillus cereus, over 2500 µg/mL against Staphylococcus aureus and 1250 µg/mL (≈ 3.56 mM) in the assay with Aspergillus fumigatus. Further, the “diameter of the inhibition zone (DIZ)” value in [1] is reported as 6 mm. In addition, the IC50 in the assay on HepG2 came to 226 µM; in the assay with HCT-116, 198 µM; in the assay with MCF7 it was 254 µM.

With `COc1ccc2c(c1)CCC/C2=N\NCc1nc2ccccc2[nH]1`, the MIC in the assay with Escherichia coli is over 2500 µg/mL; in the assay with Bacillus cereus it was over 2500 µg/mL; with Staphylococcus aureus, 1250 µg/mL (≈ 3.9 mM); in the assay with Aspergillus fumigatus, over 2500 µg/mL. In addition, the “diameter of the inhibition zone (DIZ)” value in [1] is given as under 2 mm. The IC50 stood at 80 µM with HepG2, 41 µM in the assay with HCT-116 and 63 µM in the assay on MCF7.

`Cc1c(NCc2nc3cc([N+](=O)[O-])ccc3[nH]2)c(=O)n(-c2ccccc2)n1C`: the minimal inhibitory concentration (MIC) against Escherichia coli is 2500 µg/mL (≈ 6.61 mM); in the assay on Bacillus cereus, 1250 µg/mL (≈ 3.3 mM); against Staphylococcus aureus, 625 µg/mL (≈ 1.65 mM); in the assay on Aspergillus fumigatus, 2500 µg/mL (≈ 6.61 mM). For the same molecule, the “diameter of the inhibition zone (DIZ)” value in assay [1] is under 2 mm. The IC50 in the assay with HepG2 stood at 93 µM; with HCT-116 it was 44 µM; in the assay on MCF7 it was 78 µM.

As for `CC1=NN(Cc2nc3cc([N+](=O)[O-])ccc3[nH]2)C(=O)C1`, the MIC was over 2500 µg/mL against Escherichia coli, 1250 µg/mL (≈ 4.57 mM) with Bacillus cereus, 2500 µg/mL (≈ 9.15 mM) against Staphylococcus aureus and 625 µg/mL (≈ 2.29 mM) in the assay with Aspergillus fumigatus. In addition, in assay [1], the “diameter of the inhibition zone (DIZ)” value is 3 mm. The values for the concentration for half-maximal inhibition (IC50) in the assay on HepG2, in the assay with HCT-116 and with MCF7 were 265 µM, 200 µM and 281 µM, respectively.

Regarding `O=[N+]([O-])c1ccc2[nH]c(CNc3nc4ccc(F)cc4s3)nc2c1`, the MIC was over 2500 µg/mL in the assay with Escherichia coli, over 2500 µg/mL against Bacillus cereus, over 2500 µg/mL in the assay on Staphylococcus aureus and 1250 µg/mL (≈ 3.64 mM) in the assay with Aspergillus fumigatus. In [1], the “diameter of the inhibition zone (DIZ)” value was 6 mm. Also, the IC50 with HepG2 turned out to be 263 µM; in the assay with HCT-116, 253 µM; with MCF7 it was 291 µM.
